Test results published in US6835371B1 (priority 1997, dated 2004).
“And” between values parts separate entries of the source, which are not always exact repeats. Equal entries are not always repeated. Where two headings read alike, the source gives them in different places.

Assays:
[1] = target: T1, human norepinephrine transporter (hNET) (Homo sapiens, UniProt P23975); test: biochemical; assay type: binding
[2] = target: T1, human norepinephrine transporter (hNET); test: cell-based
[3] = target: T2, human dopamine transporter (hDAT) (Homo sapiens, UniProt Q01959); test: cell-based
T2 sequence (Q01959 whole entry): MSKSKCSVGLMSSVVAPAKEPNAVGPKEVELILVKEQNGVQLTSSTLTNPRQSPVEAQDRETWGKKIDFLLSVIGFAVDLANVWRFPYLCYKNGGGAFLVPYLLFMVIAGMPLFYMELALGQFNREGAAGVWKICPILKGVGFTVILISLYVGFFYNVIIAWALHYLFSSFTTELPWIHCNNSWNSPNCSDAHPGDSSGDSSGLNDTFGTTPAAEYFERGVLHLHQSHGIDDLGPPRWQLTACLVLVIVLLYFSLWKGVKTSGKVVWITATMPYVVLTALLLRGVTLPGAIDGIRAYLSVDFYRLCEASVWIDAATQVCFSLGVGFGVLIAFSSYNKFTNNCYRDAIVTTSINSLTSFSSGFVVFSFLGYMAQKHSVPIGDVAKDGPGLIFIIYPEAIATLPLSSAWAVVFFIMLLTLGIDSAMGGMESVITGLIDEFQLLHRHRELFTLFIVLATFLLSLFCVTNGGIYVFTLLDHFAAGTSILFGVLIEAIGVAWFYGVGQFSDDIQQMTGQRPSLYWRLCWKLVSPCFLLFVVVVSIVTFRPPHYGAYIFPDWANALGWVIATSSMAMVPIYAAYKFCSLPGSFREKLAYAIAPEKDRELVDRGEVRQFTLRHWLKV

[4] = target: T2, human dopamine transporter (hDAT); test: biochemical; assay type: binding
male Swiss-Webster mice [5] = test: Cocaine interaction study (locomotor activity); assay type: in vivo; conditions: for Doses with significant differences against the cocaine group (p<0.05): planned comparisons on log10 horizontal activity counts
male Swiss-Webster mice [6] = test: animal or person; assay type: in vivo; conditions: for ED50: Mus musculus, read-out: ED50 (dose producing ½ maximal stimulant activity)
[7] = read-out: [125I]RTI-55 binding Ki, NET
[8] = read-out: [3H]Dopamine Uptake IC50
[9] = read-out: [125I]RTI-55 binding Ki, DAT
[10] = HEK-hNET cells, read-out: [125I]RTI-55 binding Ki, NET
[11] = HEK-hNET cells, read-out: [3H]NE Uptake IC50
[12] = Table 2, read-out: Reuptake [3H]NE (Ki ± SD)
[13] = HEK-hDAT cells, read-out: [3H]Dopamine Uptake IC50
[14] = Table 2, read-out: Reuptake [3H]DA (Ki ± SD)

T1 sequence (P23975 whole entry): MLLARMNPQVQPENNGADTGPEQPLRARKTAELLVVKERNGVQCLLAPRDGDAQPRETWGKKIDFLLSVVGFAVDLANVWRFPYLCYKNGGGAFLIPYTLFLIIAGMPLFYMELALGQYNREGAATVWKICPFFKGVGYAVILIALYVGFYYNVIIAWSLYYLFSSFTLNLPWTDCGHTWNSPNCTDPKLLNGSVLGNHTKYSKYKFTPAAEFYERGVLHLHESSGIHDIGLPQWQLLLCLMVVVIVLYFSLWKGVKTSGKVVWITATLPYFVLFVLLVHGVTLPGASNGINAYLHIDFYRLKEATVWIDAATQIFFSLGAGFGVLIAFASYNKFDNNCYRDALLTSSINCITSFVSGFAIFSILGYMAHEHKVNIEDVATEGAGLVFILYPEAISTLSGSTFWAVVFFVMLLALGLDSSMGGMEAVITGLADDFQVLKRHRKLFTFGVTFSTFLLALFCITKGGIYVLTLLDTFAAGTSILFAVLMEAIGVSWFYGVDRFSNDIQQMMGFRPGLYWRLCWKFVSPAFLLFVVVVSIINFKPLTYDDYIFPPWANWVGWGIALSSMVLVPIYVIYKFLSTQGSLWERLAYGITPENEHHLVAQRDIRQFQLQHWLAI

| SMILES | Ki [1, 7] [µM] | Discrimination ratio uptake/binding (DA) [3] | IC50 [3, 8] [µM] | Binding discrimination ratio NET/DAT [4] | Binding discrimination ratio SERT/DAT [4] | Hill coefficient [4] | Ki [4, 9] [µM] | Hill coefficient [1] | Ki ([4]; [125I]RTI-55 binding Ki, DAT) | IC50 ([2]; read-out: [3H]NE Uptake IC50) | Discrimination Ratio DAT Binding/Reuptake [3] | further results |
| --- | --- | --- | --- | --- | --- | --- | --- | --- | --- | --- | --- | --- |
| O=C1CN(CCCCOC(c2ccc(F)cc2)c2ccc(F)cc2)CCN1 [Compound 31524] | > 10 | 0.6 | 2.29 | >2.4 | 0.4 | −064 ± 0.03 | 4.1 | – | – | – | – | Ki ([2]; read-out: Reuptake [3H]NE (Ki ± SD)): > 10 µM; Ki ([3]; read-out: Reuptake [3H]DA (Ki ± SD)): 2.29 ± 0.2 µM |
| CC(=O)C1(c2ccccc2)CCN(CCCCOC(c2ccc(F)cc2)c2ccc(F)cc2)CC1 [Compound 31525] | – | 47.5 | – | 5.3 | 5.8 | −0.61 ± 0.01 | – | −0.71 ± 0.06 | 0.0217 µM | – | – | Ki [1, 10]: 0.114 µM; IC50 [2, 11]: 2.55 µM; Ki [2, 12]: 2.55 ± 0.95 µM; IC50 [3, 13]: 1.03 µM; Ki [3, 14]: 1.03 ± 0.33 µM |
| Fc1ccc(C(OCCCCN2CCN(c3ccccc3F)CC2)c2ccc(F)cc2)cc1 [Compound 31526] | – | 11.9 | – | 10.8 | 0.8 | −0.86 ± 0.06 | – | −0.91 ± 0.09 | 0.0387 µM | 0.7 µM | 11.9 | Attenuation of cocaine-induced locomotor activity (male Swiss-Webster mice [5]; 0.1-10 mg/kg IP 20 min before 20 mg/kg cocaine IP): did not attenuate locomotor activity induced by 20 mg/kg cocaine; ED50 (male Swiss-Webster mice [6]; ip): 0.015 mg/kg; Maximal effect/cocaine maximal effect ratio (ME/CME) (male Swiss-Webster mice [6]; mouse, in vivo): 0.49; Maximum effect, horizontal activity (male Swiss-Webster mice [6]; mouse, in vivo): 2716.1 counts/10 min; Dose at estimated maximum effect (male Swiss-Webster mice [6]; mouse, in vivo, ip): 0.64 mg/kg; Doses with significant differences against the vehicle group (p<0.05) (male Swiss-Webster mice [6]; mouse, in vivo, ip): 1 mg/kg; Ki ([1]; [125I]RTI-55 binding Ki, NET): 0.417 µM; Ki [2]: 0.7 ± 0.24 µM; IC50 ([2]; [3H]NE Uptake IC50): 0.7 µM; IC50 [3]: 0.46 µM; Ki [3]: 0.46 ± 0.14 µM |
| Fc1ccc(C(OCCCCN2CCN(c3ccc(F)cc3)CC2)c2ccc(F)cc2)cc1 [Compound 31527] | – | 23.0 | – | 7.8 | 1.3 | −0.84 ± 0.05 | – | −0.72 ± 0.05 | 0.0265 µM | – | 23.0 | Ki ([1]; [125I]RTI-55 binding Ki, NET): 0.207 µM; Ki [2]: 0.225 ± 0.028 µM; IC50 ([2]; [3H]NE Uptake IC50): 0.225 ± 0.028 µM; IC50 [3]: 0.61 µM; Ki [3]: 0.61 ± 0.15 µM |
| OC1(c2ccc(Br)cc2)CCN(CCCCOC(c2ccc(F)cc2)c2ccc(F)cc2)CC1 [Compound 31530] | – | 110.5 | – | 64.1 | 9.7 | −0.59 ± 0.06 | – | −0.97 ± 0.30 | 0.0039 µM and 0.01 µM | – | – | AD50 (dose attenuating cocaine-induced stimulation by 50%) (male Swiss-Webster mice [5]; IP, 20 mg/kg cocaine IP, 30-min period): 15.75 mg/kg; Doses with significant differences against the cocaine group (p<0.05) (male Swiss-Webster mice [5]; 20 mg/kg cocaine IP): 30 mg/kg; ED50 (male Swiss-Webster mice [6]; ip): 2.42 mg/kg; Maximal effect/cocaine maximal effect ratio (ME/CME) (male Swiss-Webster mice [6]; mouse, in vivo): 0.38; Maximum effect, horizontal activity (male Swiss-Webster mice [6]; mouse, in vivo): 2132.6 counts/10 min; Dose at estimated maximum effect (male Swiss-Webster mice [6]; mouse, in vivo, ip): 6.00 mg/kg; IC50 [2, 11]: 1.87 µM; Ki [2, 12]: 1.87 ± 0.67 µM; IC50 [3, 13]: 0.431 µM; Ki [3, 14]: 0.431 ± 0.088 µM |
| OC1(c2ccccc2)CCN(CCCCOC(c2ccc(F)cc2)c2ccc(F)cc2)CC1 [Compound 31531] | – | 15.0 | – | 8.4 | 2.8 | −0.63 ± 0.06 | – | −0.73 ± 0.03 | 0.0064 µM | – | – | Ki ([1]; [125I]RTI-55 binding Ki, NET): 0.054 µM; IC50 [2, 11]: 0.179 µM; Ki [2, 12]: 0.179 ± 0.047 µM; IC50 [3]: 0.096 µM; Ki [3]: 0.096 ± 0.011 µM |
| Fc1ccc(C(OCCCCN2CCNC(c3ccccc3)C2)c2ccc(F)cc2)cc1 (stereo not drawn) [Compound 31533] | – | 144.4 | – | 49.9 | 19.6 | – | – | – | – | – | – | Doses with significant differences against the cocaine group (p<0.05) (male Swiss-Webster mice [5]; 20 mg/kg cocaine IP): 30 mg/kg; ED50 (male Swiss-Webster mice [6]; ip): 1.52 mg/kg; Maximal effect/cocaine maximal effect ratio (ME/CME) (male Swiss-Webster mice [6]; mouse, in vivo): 0.30; Maximum effect, horizontal activity (male Swiss-Webster mice [6]; mouse, in vivo): 1648.6 counts/10 min; Dose at estimated maximum effect (male Swiss-Webster mice [6]; mouse, in vivo, ip): 10.26 mg/kg; Ki [2]: 0.29 ± 0.13 µM; Ki [3]: 0.55 ± 0.14 µM |
| OC1(c2ccc(Cl)cc2)CCN(CCCCOC(c2ccc(F)cc2)c2ccc(F)cc2)CC1 [Compound 31625] | – | – | – | 51.7 | 2380 | −0.74 ± 0.25 | – | −0.99 ± 0.22 | 0.0042 µM | – | 95.2 | Ki [1, 10]: 0.217 µM; IC50 [2, 11]: 0.8 µM; IC50 ([3]; HEK-hDAT cells, text of Examples 20 and 24, read-out: [3H]Dopamine Uptake IC50): 0.4 µM |
| Fc1ccc(C(OCCCCN2CCN(c3ccccc3Cl)CC2)c2ccc(F)cc2)cc1 [Compound 31626] | 0.54 | – | 0.328 | 8.1 | 1.3 | −1.11 ± 0.08 | 0.067 | −1.39 ± 0.23 | – | 0.29 µM and 0.299 µM | 4.9 | – |
| O=C1c2ccccc2C(=O)N1CCCCN1CCC(O)(c2ccc(Br)cc2)CC1 [Compound 31627] | – | – | >10 | 1 | >0.2 | – | – | – | – | >10 µM | – | Ki ([1]; HEK-hNET cells, bound given in μM, read-out: [125I]RTI-55 binding Ki, NET): > 10 µM; Ki ([4]; HEK-hDAT cells, bound given in μM, read-out: [125I]RTI-55 binding Ki, DAT): > 10 µM |
| NC(=O)C1CCCN(CCCCOC(c2ccc(F)cc2)c2ccc(F)cc2)C1 (stereo not drawn) [Compound 31628] | 0.578 | – | 0.056 | 6.1 | 1.4 | −1.02 ± 0.16 | 0.094 | −1.48 ± 0.70 | – | 0.158 µM | 0.6 | – |
| OC1CCN(CCCCOC(c2ccc(F)cc2)c2ccc(F)cc2)CC1 [Compound 31648] | 0.61 | – | 0.101 | 5.4 | 3.7 | −0.69 ± 0.07 | 0.124 ± 0.027 | −0.75 ± 0.06 | – | 0.143 µM | 0.9 | – |
| O=c1[nH]c2ccccc2n1C1CCN(CCCCOC(c2ccc(F)cc2)c2ccc(F)cc2)CC1 [Compound 31649] | 0.0222 | – | 0.426 | 16.8 | 2.9 | −0.63 ± 0.23 | 0.00132 | −0.47 ± 0.03 | – | 0.132 µM | 323 | – |
| OC1CCCN(CCCCOC(c2ccc(F)cc2)c2ccc(F)cc2)C1 (stereo not drawn) [Compound 31650] | 0.611 | – | 0.114 | 6.7 | 4.8 | −0.82 ± 0.15 | 0.091 | −0.66 ± 0.05 | – | 0.31 µM | 1.3 | – |
| Fc1ccc(C(OCCCCN2CCN(c3cccc(Cl)c3)CC2)c2ccc(F)cc2)cc1 [Compound 31651] | 0.3 ± 0.07 | – | 1.67 ± 0.44 | 1.7 | 0.8 | – | 0.175 ± 0.071 | – | – | 0.189 ± 0.089 µM | 9.5 | – |
| Fc1ccc(C(OCCCCN2CCN(c3ccc(Cl)cc3)CC2)c2ccc(F)cc2)cc1 [Compound 31652] | – | – | – | 7.6 | 0.7 | −1.08 ± 0.18 | – | −0.80 ± 0.08 | 0.05 µM | 0.39 µM | 23.4 | Ki ([1]; [125I]RTI-55 binding Ki, NET): 0.38 µM and 3.8 µM; IC50 ([2]; [3H]NE Uptake IC50): 0.39 µM; IC50 [3]: 1.17 µM |
| Fc1ccc(C(OCCCCN2CCN(c3ccccc3)CC2)c2ccc(F)cc2)cc1 [Compound 31653] | – | – | – | 3.3 | 0.8 | −1.14 ± 0.10 | – | −0.93 ± 0.17 | 0.0609 µM | – | 23.2 | Ki ([1]; [125I]RTI-55 binding Ki, NET): 0.203 µM; IC50 ([2]; [3H]NE Uptake IC50): 0.0563 µM; IC50 [3]: 1.41 µM |
| COc1ccccc1N1CCN(CCCCOC(c2ccc(F)cc2)c2ccc(F)cc2)CC1 [Compound 31654] | 0.092 | – | 0.301 | 3.5 | 9.7 | −0.88 ± 0.09 | 0.0262 | −0.59 ± 0.02 | – | 0.176 µM | 11.5 | – |
